Laboratory results as given in patent publication US9206188B2, “Substituted pyrrolo[2,3-b]pyridines as ITK and JAK inhibitors” (Arrien Pharmaceuticals LLC, priority 2013, dated 2015).
Like-named read-outs stand apart in the source and are kept apart here.

Assays:
ITK = ITK (Homo sapiens (Human), UniProt Q08881); experiment: ITK kinase assay (radiometric filter binding, 10 μM ATP); type: biochemical
Protocol: (§1) All additions were done on ice, followed by the addition of ATP mix. Wells were uniformly mixed using an Eppendorff plate shaker and incubated at 30° C. for 20 min, and stopped by the addition of 5 μL of 3% phosphoric acid. Volume was increased to 100 μL by adding 0.8% phosphoric acid which was then transferred to PC filter mats (Millipore), pre-equilibrated with 70% ethanol and water. Plates were washed thrice with 100 μL 0.8% phosphoric acid and dried for an hour at 60° C. 100 μL scintillation fluid was added into each well and reading taken in Perkin Elmer TOPCOUNT beta counter.
(§2) The reactions were carried out at 10 μM ATP for ITK, JAK3 and other TEC and Janus family of kinase.

JAK3 = JAK3 (Homo sapiens (Human), UniProt P52333); experiment: JAK3 kinase assay (radiometric filter binding, 10 μM ATP); type: biochemical
Protocol: as §1, §2

[1] = 10-dose IC50 mode, 10 μM ATP, read-out: ITK kinase inhibition
[2] = 10-dose IC50 mode, 10 μM ATP, read-out: JAK3 kinase inhibition
[3] = read-out: biochemical IC50 against ITK
[4] = read-out: biochemical IC50 against JAK3

Sequence of JAK3 (P52333 whole entry): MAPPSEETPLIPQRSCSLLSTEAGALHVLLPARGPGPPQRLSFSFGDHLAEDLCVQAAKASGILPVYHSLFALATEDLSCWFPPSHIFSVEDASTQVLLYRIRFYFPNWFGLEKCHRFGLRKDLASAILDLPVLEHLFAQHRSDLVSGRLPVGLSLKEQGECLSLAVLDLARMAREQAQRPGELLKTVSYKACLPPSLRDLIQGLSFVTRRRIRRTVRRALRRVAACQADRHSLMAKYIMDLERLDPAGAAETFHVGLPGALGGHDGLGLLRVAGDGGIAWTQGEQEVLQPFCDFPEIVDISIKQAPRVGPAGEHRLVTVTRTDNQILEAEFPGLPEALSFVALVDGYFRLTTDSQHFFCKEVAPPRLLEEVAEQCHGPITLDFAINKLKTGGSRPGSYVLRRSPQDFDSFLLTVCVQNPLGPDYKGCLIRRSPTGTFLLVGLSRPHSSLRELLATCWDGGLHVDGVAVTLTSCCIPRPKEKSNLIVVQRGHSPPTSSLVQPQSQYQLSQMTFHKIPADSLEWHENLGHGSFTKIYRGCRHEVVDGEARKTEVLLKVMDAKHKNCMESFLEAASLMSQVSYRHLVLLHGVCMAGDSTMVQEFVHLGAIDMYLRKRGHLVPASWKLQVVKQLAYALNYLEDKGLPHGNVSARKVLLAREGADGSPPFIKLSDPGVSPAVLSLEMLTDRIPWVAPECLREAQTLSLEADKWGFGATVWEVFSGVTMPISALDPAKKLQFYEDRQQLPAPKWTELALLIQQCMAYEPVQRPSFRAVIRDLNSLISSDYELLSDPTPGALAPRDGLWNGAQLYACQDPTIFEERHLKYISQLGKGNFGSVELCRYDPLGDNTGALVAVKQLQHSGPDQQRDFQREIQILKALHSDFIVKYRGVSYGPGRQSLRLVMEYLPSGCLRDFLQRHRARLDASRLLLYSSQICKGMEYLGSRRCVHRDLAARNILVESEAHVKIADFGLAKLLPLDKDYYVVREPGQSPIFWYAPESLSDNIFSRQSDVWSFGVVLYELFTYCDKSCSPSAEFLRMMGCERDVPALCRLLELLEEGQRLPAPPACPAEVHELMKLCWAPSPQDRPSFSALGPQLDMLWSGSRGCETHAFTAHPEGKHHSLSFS
Sequence of ITK (Q08881 whole entry): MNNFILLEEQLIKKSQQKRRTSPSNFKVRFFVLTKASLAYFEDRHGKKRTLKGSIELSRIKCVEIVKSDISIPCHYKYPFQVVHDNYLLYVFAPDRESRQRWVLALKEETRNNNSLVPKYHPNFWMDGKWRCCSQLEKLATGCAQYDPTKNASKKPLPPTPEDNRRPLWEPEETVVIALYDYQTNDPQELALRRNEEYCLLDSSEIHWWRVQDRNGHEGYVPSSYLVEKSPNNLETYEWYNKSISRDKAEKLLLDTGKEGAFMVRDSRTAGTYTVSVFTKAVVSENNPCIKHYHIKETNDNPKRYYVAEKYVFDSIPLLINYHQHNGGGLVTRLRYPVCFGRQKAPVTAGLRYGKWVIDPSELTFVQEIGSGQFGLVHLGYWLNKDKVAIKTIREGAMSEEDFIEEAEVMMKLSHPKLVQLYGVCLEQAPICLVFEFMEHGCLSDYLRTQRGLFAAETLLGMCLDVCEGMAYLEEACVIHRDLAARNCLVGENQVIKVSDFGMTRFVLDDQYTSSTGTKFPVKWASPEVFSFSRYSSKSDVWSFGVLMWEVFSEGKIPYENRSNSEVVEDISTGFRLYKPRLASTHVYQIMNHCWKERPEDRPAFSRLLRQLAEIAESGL

Compound	IC50 (ITK; [1]) [nM]	IC50 (JAK3; [2]) [nM]	IC50 (ITK; [3]) [nM]	IC50 (JAK3; [4]) [nM]	IC50 (ITK; read-out: ITK kinase inhibition) [nM]
C=CC(=O)Nc1cccc(-c2cnc3[nH]cc(-c4cccc(S(C)(=O)=O)c4)c3c2)c1 [Example 35, N-(3-(3-(3-(methylsulfonyl)phenyl)-1H-pyrrolo[2,3-b]pyridin-5-yl)phenyl)acrylamide]	> 100	> 100	–	–	–
C=CC(=O)Nc1cc(-c2cnc3[nH]cc(Cl)c3c2)cc(F)c1F [Example 64, N-(5-(3-chloro-1H-pyrrolo[2,3-b]pyridin-5-yl)-2,3-difluorophenyl)acrylamide]	–	> 100	–	–	–
COc1c(F)cc(F)cc1-c1c[nH]c2ncc(-c3cc(F)cc(NC(=O)/C(C)=C/C(C)(C)C)c3C)cc12 [Example 170, (E)-N-(3-(3-(3,5-difluoro-2-methoxyphenyl)-1H-pyrrolo[2,3-b]pyridin-5-yl)-5-fluoro-2-methylphenyl)-2,4,4-trimethylpent-2-enamide]	< 100	< 100	–	–	–
C=CC(=O)Nc1ccccc1-c1cnc2[nH]cc(Cl)c2c1 [Example 18, N-(2-(3-chloro-1H-pyrrolo[2,3-b]pyridin-5-yl)phenyl)acrylamide]	> 1000	> 1000	–	–	–
(E)-N-(2-chloro-5-(3-methyl-1H- pyrrolo[2,3-b]pyridin-5- yl)phenyl)pent-1-enamide [Example 14]	–	> 100	–	–	–
C=CC(=O)Nc1cccc(-c2cnc3[nH]cc(C)c3c2)c1 [Example 8, N-(3-(3-methyl-1H-pyrrolo[2,3-b]pyridin-5-yl)phenyl)acrylamide]	–	–	100 to 1000	100 to 1000	–
CCC#CC(=O)Nc1cc(-c2cnc3[nH]ccc3c2)ccc1F [Example 85, N-(2-fluoro-5-(1H-pyrrolo[2,3-b]pyridin-5-yl)phenyl)pent-2-ynamide]	> 1000	< 100	–	–	–
CC#CC(=O)Nc1cccc(-c2cnc3[nH]cc(C)c3c2)c1 [Example 23, N-(3-(3-methyl-1H-pyrrolo[2,3-b]pyridin-5-yl)phenyl)but-2-ynamide]	< 100	< 100	–	–	–
CC#CC(=O)Nc1cccc(-c2cnc3[nH]cc(Cl)c3c2)c1 [Example 19, N-(3-(3-chloro-1H-pyrrolo[2,3-b]pyridin-5-yl)phenyl)but-2-ynamide]	< 100	< 100	–	–	–
C=CC(=O)N1CCCC1C(=O)Nc1cnc2[nH]ccc2c1 (stereo not shown) [Example 69, 1-acryloyl-N-(1H-pyrrolo[2,3-b]pyridin-5-yl)pyrrolidine-2-carboxamide]	> 100	> 100	–	–	–
N#CCc1cccc(Nc2cnc3[nH]cc(Cl)c3c2)c1 [Example 53, 2-(3-((3-chloro-1H-pyrrolo[2,3-b]pyridin-5-yl)amino)phenyl)acetonitrile]	> 1000	> 1000	–	–	–
C=CC(=O)Nc1cccc(-c2cnc3[nH]cc(-c4cc(F)cc(F)c4OC)c3c2)n1 [Example 42, N-(6-(3-(3,5-difluoro-2-methoxyphenyl)-1H-pyrrolo[2,3-b]pyridin-5-yl)pyridin-2-yl)acrylamide]	> 100	> 100	–	–	–
C=CC(=O)Nc1cccc(-c2cnc3[nH]cc(-c4cc5ccccc5[nH]4)c3c2)c1 [Example 74, N-(3-(3-(1H-indol-2-yl)-1H-pyrrolo[2,3-b]pyridin-5-yl)phenyl)acrylamide]	> 1000	> 100	–	–	–
CCC#CC(=O)Nc1cccc(-c2cnc3[nH]cc(-c4cc(F)cc(F)c4OC)c3c2)c1 [Example 37, N-(3-(3-(3,5-difluoro-2-methoxyphenyl)-1H-pyrrolo[2,3-b]pyridin-5-yl)phenyl)pent-2-ynamide]	> 100	> 100	–	–	–
C=CC(=O)Nc1cccc(-c2cnc3[nH]cc(-c4cc5ccccc5[nH]4)c3n2)c1 [Example 5, N-(3-(7-(1H-indol-2-yl)-5H-pyrrolo[2,3-b]pyrazin-2-yl)phenyl)acrylamide]	–	–	100 to 1000	100 to 1000	–
C=CC(=O)Nc1cc(F)cc(-c2cnc3[nH]cc(-c4cc(F)cc(F)c4OC)c3c2)c1C [Example 168, N-(3-(3-(3,5-difluoro-2-methoxyphenyl)-1H-pyrrolo[2,3-b]pyridin-5-yl)-5-fluoro-2-methylphenyl)acrylamide]	< 100	< 100	–	–	–
COc1c(F)cc(F)cc1-c1c[nH]c2ncc(-c3cc(F)cc(NC(=O)/C=C/CN(C)C)c3C)cc12 [Example 169, (E)-N-(3-(3-(3,5-difluoro-2-methoxyphenyl)-1H-pyrrolo[2,3-b]pyridin-5-yl)-5-fluoro-2-methylphenyl)-4-(dimethylamino)but-2-enamide]	< 100	< 100	–	–	–
C=CC(=O)Nc1cccc(-c2cnc3[nH]cc(Cl)c3c2)n1 [Example 58, N-(6-(3-chloro-1H-pyrrolo[2,3-b]pyridin-5-yl)pyridin-2-yl)acrylamide]	> 100	< 100	–	–	–

Compound	IC50 (ITK; [1]) [nM]	IC50 (JAK3; [2]) [nM]	IC50 (ITK; [3]) [nM]	IC50 (JAK3; [4]) [nM]	IC50 (ITK; read-out: ITK kinase inhibition) [nM]
CCC#CC(=O)Nc1cccc(-c2cnc3[nH]cc(Cl)c3c2)c1 [Example 21, N-(3-(3-chloro-1H-pyrrolo[2,3-b]pyridin-5-yl)phenyl)pent-2-ynamide]	< 100	< 100	–	–	–
C=CC(=O)Nc1cc(-c2cnc3[nH]cc(Cl)c3c2)ccc1Cl [Example 46, N-(2-chloro-5-(3-chloro-1H-pyrrolo[2,3-b]pyridin-5-yl)phenyl)acrylamide]	> 1000	> 1000	–	–	–
C=CC(=O)Nc1ccccc1-c1cnc2[nH]cc(C)c2c1 [Example 17, N-(2-(3-methyl-1H-pyrrolo[2,3-b]pyridin-5-yl)phenyl)acrylamide]	> 1000	> 1000	–	–	–
CC#CC(=O)Nc1cccc(-c2cnc3[nH]cc(-c4cccc(S(=O)(=O)N(C)C(C)(C)C)c4)c3c2)c1 [Example 94, N-(3-(3-(3-(N-(tert-butyl)-N-methylsulfamoyl)phenyl)-1H-pyrrolo[2,3-b]pyridin-5-yl)phenyl)but-2-ynamide]	–	> 100	–	–	> 100
C=CC(=O)Nc1cccc(-c2cnc3[nH]cc(-c4cc5ccc(C)cc5[nH]4)c3n2)c1 [Example 2, N-(3-(7-(6-methyl-1H-indol-2-yl)-5H-pyrrolo[2,3-b]pyrazin-2-yl)phenyl)acrylamide]	> 100	> 100	–	–	–
C=CC(=O)Nc1cccc(-c2cnc3[nH]cc(-c4cc5ccc(C)cc5[nH]4)c3c2)c1 [Example 75, N-(3-(3-(6-methyl-1H-indol-2-yl)-1H-pyrrolo[2,3-b]pyridin-5-yl)phenyl)acrylamide]	> 1000	< 100	100 to 1000	100 to 1000	–
C=CC(=O)Nc1cccc(-c2cnc3[nH]nc(C)c3c2)c1 [Example 1, N-(3-(3-methyl-1H-pyrazolo[3,4-b]pyridin-5-yl)phenyl)acrylamide]	> 1000	> 1000	–	–	–
CCC#CC(=O)Nc1cccc(-c2cnc3[nH]cc(-c4cccc(S(=O)(=O)N(C)C(C)(C)C)c4)c3n2)c1 [Example 96, N-(3-(7-(3-(N-(tert-butyl)-N-methylsulfamoyl)phenyl)-5H-pyrrolo[2,3-b]pyrazin-2-yl)phenyl)pent-2-ynamide]	> 100	> 100	–	–	–
C=CC(=O)Nc1cccc(-c2cnc3[nH]cc(-c4cc(C)c(F)cc4OC)c3c2)c1 [Example 140, N-(3-(3-(4-fluoro-2-methoxy-5-methylphenyl)-1H-pyrrolo[2,3-b]pyridin-5-yl)phenyl)acrylamide]	> 1000	> 100	–	–	–
CCC#CC(=O)Nc1cccc(-c2cnc3[nH]cc(-c4cccc(S(=O)(=O)N(C)C(C)(C)C)c4)c3c2)c1 [Example 32, N-(3-(3-(3-(N-(tert-butyl)-N-methylsulfamoyl)phenyl)-1H-pyrrolo[2,3-b]pyridin-5-yl)phenyl)pent-2-ynamide]	> 100	< 100	–	–	–
C=CC(=O)N1CCCC1C(=O)Nc1cccc(-c2cnc3[nH]cc(Cl)c3c2)c1 (stereo not shown) [Example 68, 1-acryloyl-N-(3-(3-chloro-1H-pyrrolo[2,3-b]pyridin-5-yl)phenyl)pyrrolidine-2-carboxamide]	> 100	> 100	–	–	–
C=CC(=O)Nc1cc(-c2cnc3[nH]ccc3c2)cc(F)c1F [Example 63, N-(2,3-difluoro-5-(1H-pyrrolo[2,3-b]pyridin-5-yl)phenyl)acrylamide]	> 1000	> 100	–	–	–
C=CC(=O)Nc1ccc(F)c(-c2cnc3[nH]cc(-c4cc(F)cc(F)c4OC)c3c2)c1 [Example 40, N-(3-(3-(3,5-difluoro-2-methoxyphenyl)-1H-pyrrolo[2,3-b]pyridin-5-yl)-4-fluorophenyl)acrylamide]	> 100	> 100	–	–	–
C#CC(=O)Nc1cccc(-c2cnc3[nH]cc(Cl)c3c2)n1 [Example 79, N-(6-(3-chloro-1H-pyrrolo[2,3-b]pyridin-5-yl)pyridin-2-yl)propiolamide]	< 100	< 100	–	–	–
CC#CC(=O)Nc1cccc(-c2cnc3[nH]cc(C)c3c2)n1 [Example 91, N-(6-(3-methyl-1H-pyrrolo[1,3-b]pyridin-5-yl)pyridin-2-yl)but-2-ynamide]	< 100	< 100	–	–	–
O=C(Nc1cccc(-c2cnc3[nH]cc(Cl)c3c2)c1)C1CCCN1 (stereo not shown) [Example 67, N-(3-(3-chloro-1H-pyrrolo[2,3-b]pyridin-5-yl)phenyl)pyrrolidine-2-carboxamide]	> 100	> 100	–	–	–
CC#CC(=O)Nc1cc(-c2cnc3[nH]cc(Cl)c3c2)ccc1F [Example 88, N-(5-(3-chloro-1H-pyrrolo[2,3-b]pyridin-5-yl)-2-fluorophenyl)but-2-ynamide]	–	< 100	–	–	–
CN(C)/C=C/C(=O)Nc1cccc(-c2cnc3[nH]cc(Cl)c3c2)c1 [Example 44, (E)-N-(3-(3-chloro-1H-pyrrolo[2,3-b]pyridin-5-yl)phenyl)-3-(dimethylamino)acrylamide]	> 1000	–	–	–	–
